The results in this text go back to patent publication US20230120205A1, “NERVE CELL DEGENERATION INHIBITOR” (KYOTO UNIVERSITY, priority 2020, published 2023).

Usually inhibition stands for the percentage by which the read-out fell short of the control. High values mean a response far below the control, low ones a response near the control.

The subject of the experiment is RAN translation. The experiment is described as follows: RAN translation inhibitory activity (poly-GP level by electrochemiluminescence). It is filed as cell-based, human. The following applies: two days after addition, poly-GP level vs DMSO; for inhibition at 3 µM / inhibition at 1 µM / inhibition at 10 µM: Homo sapiens, 48 h. How it is done:
Next, the effect of the compound used in the present invention on RAN translation was examined. Among the DPRs generated by RAN translation, the poly-GP level was measured by an electrochemiluminescence system (Meso Scale Diagnostics).
ALS7 (C9orf72) cells were seeded on an assay plate in the same procedure as in Experimental Example 1. Four days after seeding, the assay medium containing no Y-27632 was added to the plate, and the cells were cultured until seven days after seeding, and the assay medium (Retinoic Acid, Doxycycline, SAG, Y-27632-free) containing the test compound at a predetermined concentration was added to the plate by medium exchange. Two days after addition of the test compound, the medium was removed, and the cells were lysed in an urea buffer consisting of 8M Urea (Wako, 219-00175), 4% CHAPS (Dojindo, 349-04722) and 30 mM Tris-HCl (pH 8.0, Nippon Gene, 312-90061). The cell lysate was added to a multi-array 384 well plate (Meso Scale Diagnostics, L21XB-4), and the plate was agitated at 700 rpm with a plate shaker (Azwan, DM-301) at room temperature, and then allowed to stand overnight at 4° C. The cell lysate was removed, a blocking buffer consisting of 5% Blocker A (Meso Scale Diagnostics, R93AA-1) and 1×TBS-T {TBS (Bio-Rad, 170-6435) containing 0.05% Tween-20 (Bio-Rad, 170-6531)} was added to the plate, and the plate was agitated at 700 rpm with a plate shaker for 1 hr at room temperature, and then washed three times with a wash buffer consisting of 0.05% Tween-20 and PBS (Wako, 162-18547). C9RANT antibody (Novus Biologicals, NBP2-25018) diluted 10,000-fold with 1×TBS-T containing 1% Blocker A was added to the plate, and the plate was agitated at 700 rpm with a plate shaker for 2 hr at 4° C., and then allowed to stand overnight at 4° C. After washing three times with the wash buffer, SULFO-TAG Goat Anti-Rabbit Antibody (Meso Scale Diagnostics, R32AB-1) diluted 500-fold with 1×TBS-T containing 1% Blocker A was added to the plate, and the plate was agitated at 700 rpm with a plate shaker for 2 hr at room temperature. After washing three times with the wash buffer, 2×MSD Read Buffer T with Surfactant (Meso Scale Diagnostics, R92TC-1) was added to the plate, and the signal derived from the C9RANT antibody was measured by MESO SECTOR S600 (Meso Scale Diagnostics).
The method for detecting the activity of the test compound is as follows.
As a negative control, the cells cultured in the assay medium supplemented with DMSO instead of the test compound were used.
RAN translation inhibitory activity of the test compound=100−X/C×100
X: poly-GP level in the test compound group, C: poly-GP level in the DMSO group

With `NS(=O)(=O)Cc1cccc(Nc2ncnc(-c3ccccc3OCc3ccccc3)n2)c1.O=C(O)C(F)(F)F` [Compound No. 4a, 1-[3-({4-[2-(benzyloxy)phenyl]-1,3,5-triazin-2-yl}amino)phenyl]methanesulfonamide trifluoroacetate], the “RAN translation inhibitory activity %” value is, setting by setting: (1 μM test compound) 5%; (10 μM test compound) 3%. For the setting “3 μM test compound”, this compound showed an inhibition at 3 µM of 11%.

For the setting “1 μM test compound”, `CCOC(=O)N=S(C)(=O)Cc1cccc(Nc2ncnc(-c3cccc4c3OCC4)n2)c1` (centres unmarked) [Compound No. 7, ethyl {[(3-{[4-(2,3-dihydro-1-benzofuran-7-yl)-1,3,5-triazin-2-yl]amino}phenyl)methyl](methyl)oxo-λ^6-sulfanylidene}carbamate] came in with an inhibition at 1 µM of 4%. For the same compound, the inhibition at 3 µM (3 μM test compound) is 19%. Moreover, where the note is “10 μM test compound”, testing at 10 µM gave an inhibition of 17%.

In turn, `CCOC(=O)N=S(C)(=O)Cc1cccc(Nc2ncnc(-c3cccc4c3OCCO4)n2)c1` (centres unmarked) [Compound No. 6, ethyl {[(3-{[4-(2,3-dihydro-1,4-benzodioxin-5-yl)-1,3,5-triazin-2-yl]amino}phenyl)methyl](methyl)oxo-λ^6-sulfanylidene}carbamate] gave an inhibition at 1 µM (1 μM test compound) of 16%. Under “10 μM test compound”, testing at 10 µM gave an inhibition of 21%.

Turning to `CS(=N)(=O)Cc1cccc(Nc2ncnc(-c3ccccc3OCc3ccc(Cl)c(Cl)c3)n2)c1` (centres unmarked) [Compound No. 5, 4-{2-[(3,4-dichlorophenyl)methoxy]phenyl}-N-{3-[(S-methanesulfonimidoyl)methyl]phenyl}-1,3,5-triazin-2-amine], 1 µM produced 19% inhibition (1 μM test compound). This compound also had an inhibition at 3 µM (3 μM test compound) of 16%. For the same compound, for the setting “10 μM test compound”, the inhibition at 10 µM was found to be 21%.

As for `COc1cc(Cl)ccc1-c1ncnc(Nc2cccc(CS(N)(=O)=O)c2)n1` [Compound No. 3, 1-(3-{[4-(4-chloro-2-methoxyphenyl)-1,3,5-triazin-2-yl]amino}phenyl)methanesulfonamide], the inhibition at 1 µM (1 μM test compound) is over 1%. The compound further returned an inhibition at 3 µM (3 μM test compound) of 1%. For the setting “10 μM test compound”, 10 µM produced 4% inhibition.

As to `NS(=O)(=O)Cc1cccc(Nc2ncnc(-c3ccccc3OCc3ccccc3)n2)c1` [Compound No. 4b, 1-[3-({4-[2-(benzyloxy)phenyl]-1,3,5-triazin-2-yl}amino)phenyl]methanesulfonamide], the “RAN translation inhibitory activity %” value was found to be 11% (1 μM test compound), 17% (3 μM test compound) and 17% (10 μM test compound).

Take `COc1ccccc1-c1ncnc(Nc2cccc(CS(N)(=O)=O)c2)n1` [Compound No. 2, 1-(3-{[4-(2-methoxyphenyl)-1,3,5-triazin-2-yl]amino}phenyl)methanesulfonamide]: the inhibition at 1 µM (1 μM test compound) was over 1%. Where the note is “3 μM test compound”, this compound returned an inhibition at 3 µM of 6%. The inhibition at 10 µM (10 μM test compound) stood at 15%.

Where the note is “1 μM test compound”, `COc1cc(F)ccc1-c1ncnc(Nc2cccc(CS(C)(=N)=O)c2)n1` (centres unmarked) [Compound No. 1, 4-(4-fluoro-2-methoxyphenyl)-N-{3-[(S-methanesulfonimidoyl)methyl]phenyl}-1,3,5-triazin-2-amine] had an inhibition at 1 µM of 1%. The inhibition at 3 µM (3 μM test compound) is 19%. In addition, 10 µM produced 18% inhibition (10 μM test compound).
